From patent publication US20020031520A1, “PREVENTION AND TREATMENT OF HEPATOCELLULAR CANCER” (priority 1997, published 2002) come the findings set out here.

Where no end group is shown, it is not given here.

In one series the test system is AFP+/HLA A2.1+ HepG2. The series can be described thus: 4 hour 51Cr-release assay of peptide-generated CTL against HepG2. In kind it is cell-based, human. The procedure:
IL-2 was added twice weekly at 10 units/ml. […] Non-specific NK killing was assessed with the NK sensitive target K562. The CTL were also tested against the HLA A2.1-positive, AFP-positive human hepatocellular carcinoma cell line, HepG2. Referring now to Table III, there are shown the cytotoxicity results of tests for the twelve AFP peptide sequences used to generate CTL from normal donors that gave positive peptide cytotoxicity results. […] Further, new AFP49 peptide-generated CTL cultures were made using two different, normal HLA A2.1 donors. Additional targets were used to confirm that the cytotoxicity observed using AFP49 was AFP antigen-specific and class I restricted. Referring now to FIG. 1, there is shown representative data of these tests. First, to confirm that the observed cytotoxicity was class I restricted, anti-β2 microglobulin antibody was used to block the CTL-T cell receptor interaction on HepG2 cells. […] Next, to eliminate non-specific NK/LAK killing, a 40-fold excess of unlabeled (cold) K562 cells was added. […] Also, an AFP+, HLA A2.1-negative hepatocellular carcinoma cell line, Hep3B, that is, a class I-mismatched hepatocellular carcinoma cell line, was also used as a target. […] This small amount of observed Hep3B lysis was eliminated by adding an excess of cold K562 cells, in contrast to the retention of specific killing of HepG2 when cold K562 cells were added.

The target of series [1] is T1, HLA A2.1 (Homo sapiens, UniProt P04439, D140Y/D185E/D98H/E176V/E277Q/G131W/G231S/I119V/I121R/I166T/I218V/L300P/L318F/N151K/N90K/P208A/P217A/Q86G/Q94H/R138H/R169H/T345S). The series can be described thus: EBV lymphoblastoid cell off-kinetics assay. It counts as binding. Conditions: for Time of Peptide Stability on Lymphoblastoid Cells: pulsed at 200 μM for 1 hour, followed 0, 2, 4 and 6 hours at 37° C., (n.s.) = not stable. The source says: The cells were washed at the end of each time point and stained for HLA A2 with the BB7.2 antibody.

The target of series [2] is T1, HLA A2.1. The series is described as follows: T2 cell stabilization assay. In kind it is binding. Conditions: peptide tested 0.1 μM-100 μM; flow cytometry with BB7.2; (n.s.) = not stable. (In general: In flow cytometry, cells or beads pass a laser one at a time.)
Series [3] has as its system M202 (HLA A2.1+/AFP-) melanoma cells transduced with AdVhAFP. The series can be described thus: chromium release assay of peptide-specific CTL against M202 cells transduced with AdVhAFP or control AdVRR5. Conditions: FIG. 2. In kind it is cell-based, human.
For series [4], the system named is T2 cells pulsed with the specific peptide. To be noted: FIG. 2; T2 pulsed with specific peptide versus a different HLA A2.1 binding peptide.

FMNKFIYEI [AFP5]: the “AFP+/HLA A2.1+ HepG2 Cytotoxicity” value in the series with AFP+/HLA A2.1+ HepG2 (E:T 5:1) was 4%; in the series on AFP+/HLA A2.1+ HepG2 (E:T 20:1) it was 7%.

For the sequence FQAITVTKL [AFP45], the “AFP+/HLA A2.1+ HepG2 Cytotoxicity” value is 9% in the series with AFP+/HLA A2.1+ HepG2 (E:T 10:1) and 27% with AFP+/HLA A2.1+ HepG2 (E:T 50:1).

Regarding “FQKLGEYYL [AFP34, residues 419-427 of hAFP]”, the “Time of Peptide Stability on Lymphoblastoid Cells” value (shortened to “Time of Peptide Stability”) in the series with HLA A2.1 [1] is on record as “(n.s.)”. Also, the “Minimum Concentration of Peptide to Stabilize A2 on T2 cells” value (“Minimum Concentration of Peptide” below) with HLA A2.1 [2] was 100 µM.

For the sequence “FVQEATYKF [AFP8, residues 54-62 of hAFP]”, in the series with HLA A2.1 [1], the “Time of Peptide Stability” value was more than 2 h. Besides, the “Minimum Concentration of Peptide” value with HLA A2.1 [2] is listed as “(n.s.)”.

In the case of “GVALQTMKL (listed as Homo sapiens) [AFP49L9, single amino acid substitution in position 9 of AFP49]”, in series [3], the “killing of M202/AdVhAFP compared with AFP49 peptide-specific CTL cultures” value is “even more effectively” and the “killing of M202/AdVhAFP versus M202/RR5” value was “significantly more killing of M202 cells transduced with AdVhAFP”.

Consider GVALQTMKQ [AFP49], for which the “AFP+/HLA A2.1+ HepG2 Cytotoxicity” value with AFP+/HLA A2.1+ HepG2 (E:T 10:1) was found to be 17%; in the series on AFP+/HLA A2.1+ HepG2 (E:T 50:1), 45%.

With “GVALQTMKV (listed as Homo sapiens) [AFP49V9, single amino acid substitution in position 9 of AFP49]”, the “peptide specificity of CTL culture” value in series [4] was “showed peptide specificity”. Further, in series [3], the “killing of M202/AdVhAFP compared with AFP49 peptide-specific CTL cultures” value is recorded as “even more effectively” and the “killing of M202/AdVhAFP versus M202/RR5” value is given as “significantly more killing of M202 cells transduced with AdVhAFP”.

With “ILLWAARYD [AFP18, residues 178-186 of hAFP]”, in the series with HLA A2.1 [1], the “Time of Peptide Stability” value is more than 6 h. For the same sequence, the “Minimum Concentration of Peptide” value with HLA A2.1 [2] is recorded as “(n.s.)”.

As for “KELRESSLL [AFP16, residues 211-219 of hAFP]”, the “Time of Peptide Stability” value in the series with HLA A2.1 [1] came to 2 h. Further, in the series with HLA A2.1 [2], the “Minimum Concentration of Peptide” value was “(n.s.)”.

KLVLDVAHV [AFP4]: the “AFP+/HLA A2.1+ HepG2 Cytotoxicity” value came to 4% in the series on AFP+/HLA A2.1+ HepG2 (E:T 5:1) and 7% with AFP+/HLA A2.1+ HepG2 (E:T 20:1).

“KMVKDALTAI [AFP64, residues 65-74 of hAFP]”: in the series with HLA A2.1 [1], the “Time of Peptide Stability” value is listed as “(n.s.)”. Further, the “Minimum Concentration of Peptide” value with HLA A2.1 [2] was determined as 100 µM.

For KQEFLINLV [AFP37], the “AFP+/HLA A2.1+ HepG2 Cytotoxicity” value with AFP+/HLA A2.1+ HepG2 (E:T 5:1) is listed as 0%; in the series with AFP+/HLA A2.1+ HepG2 (E:T 25:1), 2%.

For LLNFTESRT [AFP7], the “AFP+/HLA A2.1+ HepG2 Cytotoxicity” value in the series with AFP+/HLA A2.1+ HepG2 (E:T 10:1) is listed as 6%; in the series with AFP+/HLA A2.1+ HepG2 (E:T 50:1), 15%.

With MKWVESIFL [AFP38], the “AFP+/HLA A2.1+ HepG2 Cytotoxicity” value was found to be 0% in the series with AFP+/HLA A2.1+ HepG2 (E:T 10:1) and 12% in the series with AFP+/HLA A2.1+ HepG2 (E:T 50:1).

Take NLVKQKPQI [AFP23]: the “AFP+/HLA A2.1+ HepG2 Cytotoxicity” value in the series with AFP+/HLA A2.1+ HepG2 (E:T 5:1) came out at 2%; with AFP+/HLA A2.1+ HepG2 (E:T 20:1), 15%.

In the case of PVNPGVGQC [AFP39], the “AFP+/HLA A2.1+ HepG2 Cytotoxicity” value in the series on AFP+/HLA A2.1+ HepG2 (E:T 10:1) turned out to be 12%; with AFP+/HLA A2.1+ HepG2 (E:T 50:1) it was 29%.

For “QLTSSELMAI [AFP14, residues 441-450 of hAFP]”, in the series with HLA A2.1 [1], the “off-kinetics (in words)” value is given as “slow off-kinetics” and the “Time of Peptide Stability” value is more than 2 h. Also, the “Minimum Concentration of Peptide” value in the series with HLA A2.1 [2] was found to be 50.0 µM.

Turning to “SLVVDETYV [AFP17, residues 514-522 of hAFP]”, the “Time of Peptide Stability” value with HLA A2.1 [1] was “(n.s.)”. Further, the “Minimum Concentration of Peptide” value with HLA A2.1 [2] is 1.0 µM.

Regarding “TLSNKITEC [AFP60, residues 294-302 of hAFP]”, the “Time of Peptide Stability” value with HLA A2.1 [1] is “(n.s.)”. Further, in the series with HLA A2.1 [2], the “Minimum Concentration of Peptide” value was 50 µM.

Take TMKQEFLINL [AFP22]: the “AFP+/HLA A2.1+ HepG2 Cytotoxicity” value in the series with AFP+/HLA A2.1+ HepG2 (E:T 5:1) is on record as 9%; in the series on AFP+/HLA A2.1+ HepG2 (E:T 20:1) it was 24%.

Take “YICSQQDTL [AFP28, residues 287-295 of hAFP]”: the “Time of Peptide Stability” value in the series with HLA A2.1 [1] was found to be 2 h. Further, the “Minimum Concentration of Peptide” value with HLA A2.1 [2] came to 50 µM.

As for “YIQESQALA [AFP13, residues 404-412 of hAFP]”, the “Time of Peptide Stability” value in the series with HLA A2.1 [1] is more than 2 h. Besides, the “Minimum Concentration of Peptide” value in the series with HLA A2.1 [2] came to 10.0 µM.
